Experimental data published in patent US9340840B2, “Use of selected lactic acid bacteria for reducing infantile colic” (Biogaia AB, priority 2006, dated 2016).

How the values were obtained:
[1] = tested on: Breast-fed infants with a diagnosis of infantile colic; assay: Selected probiotic strains versus Simethicone in the treatment of infantile colic (crying time, 28 days); type: in vivo, human; conditions: for Crying time (mean minutes per day): N = 30 per group
From the text: Breast-fed infants with a diagnosis of infantile colic are recruited in the Department of Pediatric and Adolescence Science (Drottning Silvias University Hospital, Goteborg). Patients aged 21-90 days, adequate for gestational age with a birth weight between 2500 and 4000 g, with colic symptoms satisfying the Wessel's criteria, and arisen almost 6±1 days before the enrollment, are considered for inclusion in the study (Wessel M A, Cobb J C, Jackson E B, Harris G S, Detwiler A C. Paroxismal fussing in infancy, sometimes called “colic”. Pediatrics 1954; 14: 421-35). All infants enrolled are exclusively breast-fed in order to reduce variability in the intestinal microflora due to variations in the diet, which may in turn have influenced the response to the probiotic. Infants are excluded if they had clinical evidence of chronic illness or gastrointestinal disorders or if they had received either antibiotics or probiotics in the week preceding recruitment.
In this study, colicky infants are randomized to receive the probiotic or Simethicone in the following treatments:
L. reuteri is administered at a dose of 10^8 colony forming units (CFU) in 5 drops of a commercially available MCT-oil (medium chain tri-glyceride oil) suspension 30 min after feeding, once a day for 28 days. MCT oils occur naturally, and the most abundant source is coconut oil. Most MCT oil is refined from coconut oil. MCT oil is a clear light colored liquid with no flavor and low viscosity. This oil suspension is stable for 21 months at 2-8° C. (as documented by the manufacturer, BioGaia AB, Stockholm, Sweden) (alternative source of MCT oil is Akomed R, by Karlshamns AB, Karlshamn, Sweden). During the study, parents are instructed to keep the product in the refrigerator when not in use. Simethicone (S) was given at a dose of 60 mg/day in 3 mL of a commercially available solution (Mylicon Infants Gas Relief Drops, J&J, 7050 Camp Hill Rd., Fort Washington, Pa., 19034-2210, USA) after feeding, twice a day for 28 days. At the enrollment, all mothers are asked to follow a cows' milk-free diet as reported: avoidance of milk, yogurt, fresh and strong cheese, cream, butter, biscuits. Adherence to the diet is monitored with a diet diary maintained for all the treatment period. At day 7, 14, 21 and 28 one of the researches examined the compliance to this diet.
The day on which the pediatrician saw the infant for the first time is defined as Day-1. On this occasion each infant underwent a medical examination and the parents were interviewed in order to obtain background data concerning type of delivery, birth weight and gestational age, family history of gastrointestinal disease and atopy. In particular, the last one is considered positive if the infants had one or more family members (mother, father and/or older sibling) with atopic eczema, allergic rhinitis or asthma. Moreover, any signs and symptoms of atopic disease during the study period were recorded. Parents were also invited to record data concerning daily average crying time and number of colic episodes on the day after the recruitment (Day 0). The doctor randomly assigned the child to any of the study groups. Administration of study products began on Day 1.
Parents are given written information about the study and are asked to record daily number of inconsolable crying episodes and their duration, stool consistency and frequency as well as any observed side effects (constipation, vomiting, cutaneous reactions, etc) starting from Day 0 up to Day 28, using a structured diary. In order to ensure that all the parents noted crying time in a uniform way and to ensure that the infants are given the medication correctly, one of the researchers is always available by phone to help parents.
Each patient is re-examined by the same pediatrician on Days 1, 7, 14, 21 and 28.

[2] = tested on: colicky symptoms in breast-fed infants; conditions: within 7 days of treatment; cited from earlier work

dimethylpolysiloxane [Simethicone]
withdrawal because of any side effect related to the trial ([1]; 28 days treatment, 30 infants per group): No babies are withdrawn because of any side effect | Crying time (mean minutes per day) ([1]; Day 0 (before administration), colicky infants): 205 minutes per day | Crying time (mean minutes per day) ([1]; Day 1, colicky infants): 194 minutes per day | Crying time (mean minutes per day) ([1]; Day 7, colicky infants): 172 minutes per day | Crying time (mean minutes per day) ([1]; Day 14, colicky infants): 155 minutes per day | Crying time (mean minutes per day) ([1]; Day 21, colicky infants): 148 minutes per day | Crying time (mean minutes per day) ([1]; Day 28, colicky infants): 141 minutes per day | response rate to the treatment [2]: 7%
